What was measured:
[1] = Selectivity interaction (KinomeScan (DiscoverX)) EUB0000229b CDK2H; settings: at 1 µM
[2] = target: T1, Serine/threonine-protein kinase LATS2 (Homo sapiens) (UniProt Q9NRM7); experiment: Selectivity interaction (Kinase panel (KiNativ target engagement assay in Jurkat cells)) EUB0001635a LATS2; type: cell-based; settings: Selectivity number of off-targets 0.0, Selectivity number of targets 233.0, Source Knowledge https://www.sciencedirect.com/science/article/pii/S2451945619300674?via%3Dihub, at 1 µM
T1 sequence (whole entry): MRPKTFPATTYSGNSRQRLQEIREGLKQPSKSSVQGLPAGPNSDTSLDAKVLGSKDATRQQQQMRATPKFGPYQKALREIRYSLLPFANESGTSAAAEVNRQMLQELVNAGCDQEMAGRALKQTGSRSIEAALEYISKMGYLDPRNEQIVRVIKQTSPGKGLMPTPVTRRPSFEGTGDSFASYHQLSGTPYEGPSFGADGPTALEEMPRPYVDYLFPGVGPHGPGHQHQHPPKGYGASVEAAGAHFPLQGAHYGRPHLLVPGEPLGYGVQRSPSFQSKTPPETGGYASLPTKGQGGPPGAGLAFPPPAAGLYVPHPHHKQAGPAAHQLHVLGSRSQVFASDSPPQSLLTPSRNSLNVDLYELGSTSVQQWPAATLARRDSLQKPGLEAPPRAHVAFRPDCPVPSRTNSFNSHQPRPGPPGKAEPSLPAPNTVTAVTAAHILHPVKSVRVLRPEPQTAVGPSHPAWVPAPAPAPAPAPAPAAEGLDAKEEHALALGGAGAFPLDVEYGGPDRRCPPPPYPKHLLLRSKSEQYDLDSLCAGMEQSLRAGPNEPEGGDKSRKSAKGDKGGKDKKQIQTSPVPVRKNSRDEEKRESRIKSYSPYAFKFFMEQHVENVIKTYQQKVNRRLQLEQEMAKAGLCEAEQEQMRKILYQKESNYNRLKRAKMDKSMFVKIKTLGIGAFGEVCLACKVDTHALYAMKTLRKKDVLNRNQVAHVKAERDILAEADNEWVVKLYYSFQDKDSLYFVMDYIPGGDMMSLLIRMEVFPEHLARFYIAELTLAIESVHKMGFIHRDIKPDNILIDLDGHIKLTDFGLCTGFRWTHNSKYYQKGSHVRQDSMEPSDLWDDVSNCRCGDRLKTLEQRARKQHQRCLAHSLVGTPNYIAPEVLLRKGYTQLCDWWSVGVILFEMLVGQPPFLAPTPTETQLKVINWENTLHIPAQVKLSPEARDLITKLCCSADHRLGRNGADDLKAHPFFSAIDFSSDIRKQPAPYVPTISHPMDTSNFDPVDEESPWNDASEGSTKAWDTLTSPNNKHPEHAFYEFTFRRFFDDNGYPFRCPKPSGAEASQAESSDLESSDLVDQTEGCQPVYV

[3] = test system: Tyrosine-protein kinase ABL1 (Homo sapiens), P00519 [F317I]; settings: at 10 µM
[4] = target: Bromodomain-containing protein 4 (Homo sapiens, UniProt O60885); experiment: Selectivity interaction (AlphaScreen binding assay) EUB0001632a BRD4
[5] = target: T2, Serine/threonine-protein kinase D3 (Homo sapiens) (UniProt O94806); experiment: Selectivity interaction (Kinase panel (Z-LYTE Assay)) EUB0001632a PRKD3; settings: at 10 µM
T2 sequence (whole entry): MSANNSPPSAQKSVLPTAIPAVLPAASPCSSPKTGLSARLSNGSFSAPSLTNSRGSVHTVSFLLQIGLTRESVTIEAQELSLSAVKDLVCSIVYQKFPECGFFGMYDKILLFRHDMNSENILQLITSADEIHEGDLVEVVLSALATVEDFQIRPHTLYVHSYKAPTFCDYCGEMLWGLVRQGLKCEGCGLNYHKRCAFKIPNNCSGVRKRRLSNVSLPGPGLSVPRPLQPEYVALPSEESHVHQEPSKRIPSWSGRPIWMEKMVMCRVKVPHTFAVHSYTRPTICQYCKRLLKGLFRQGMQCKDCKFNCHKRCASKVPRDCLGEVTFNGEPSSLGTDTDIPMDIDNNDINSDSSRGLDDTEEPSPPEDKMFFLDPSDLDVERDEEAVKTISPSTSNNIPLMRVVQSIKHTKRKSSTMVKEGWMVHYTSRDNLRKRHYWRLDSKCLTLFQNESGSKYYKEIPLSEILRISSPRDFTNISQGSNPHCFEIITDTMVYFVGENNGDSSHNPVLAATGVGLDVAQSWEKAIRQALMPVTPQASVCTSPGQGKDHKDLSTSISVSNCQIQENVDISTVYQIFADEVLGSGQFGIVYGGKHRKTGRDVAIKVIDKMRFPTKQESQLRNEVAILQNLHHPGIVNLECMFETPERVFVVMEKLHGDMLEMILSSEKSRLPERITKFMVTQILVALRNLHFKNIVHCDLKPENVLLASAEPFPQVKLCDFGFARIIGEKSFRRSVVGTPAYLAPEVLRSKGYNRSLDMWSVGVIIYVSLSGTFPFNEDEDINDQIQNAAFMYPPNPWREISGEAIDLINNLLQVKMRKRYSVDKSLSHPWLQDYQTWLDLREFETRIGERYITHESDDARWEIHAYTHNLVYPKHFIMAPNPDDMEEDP

[6] = target: T3, Mitogen-activated protein kinase kinase kinase 2 (Homo sapiens) (UniProt Q9Y2U5); experiment: Selectivity interaction (KinomeScan (DiscoverX)) EUB0001049a MAP3K2; settings: at 1 µM
T3 sequence (whole entry): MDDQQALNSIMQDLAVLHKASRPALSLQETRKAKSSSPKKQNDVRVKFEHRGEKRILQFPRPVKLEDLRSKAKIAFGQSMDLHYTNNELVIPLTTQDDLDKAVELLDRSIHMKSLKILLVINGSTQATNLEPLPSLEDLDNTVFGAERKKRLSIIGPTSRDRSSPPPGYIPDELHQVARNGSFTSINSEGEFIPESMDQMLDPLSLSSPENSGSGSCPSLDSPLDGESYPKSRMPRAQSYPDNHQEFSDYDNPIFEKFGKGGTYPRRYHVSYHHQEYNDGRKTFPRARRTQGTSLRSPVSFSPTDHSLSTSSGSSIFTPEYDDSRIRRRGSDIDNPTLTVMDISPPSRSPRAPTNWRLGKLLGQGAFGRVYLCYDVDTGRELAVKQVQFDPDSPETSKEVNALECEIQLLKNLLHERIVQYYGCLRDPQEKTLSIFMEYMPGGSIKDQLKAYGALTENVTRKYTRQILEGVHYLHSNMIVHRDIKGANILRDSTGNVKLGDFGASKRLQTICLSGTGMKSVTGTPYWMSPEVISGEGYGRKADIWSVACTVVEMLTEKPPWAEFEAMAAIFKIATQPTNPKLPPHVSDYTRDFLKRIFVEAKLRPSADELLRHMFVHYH

[7] = target: RAF proto-oncogene serine/threonine-protein kinase (Homo sapiens) (UniProt P04049); experiment: Selectivity interaction (Ambit KINOMEscan and KiNATiv profiling in Jurkat cells) EUB0000090b RAF1; type: cell-based; settings: at 1 µM
[8] = target: Tyrosine-protein kinase Blk (Homo sapiens) (UniProt P51451); experiment: Selectivity interaction (KinomeScan (DiscoverX)) EUB0001619a BLK; settings: at 1 µM
Chain of Tyrosine-protein kinase Blk (Homo sapiens) (P51451 2-505 limits assumed): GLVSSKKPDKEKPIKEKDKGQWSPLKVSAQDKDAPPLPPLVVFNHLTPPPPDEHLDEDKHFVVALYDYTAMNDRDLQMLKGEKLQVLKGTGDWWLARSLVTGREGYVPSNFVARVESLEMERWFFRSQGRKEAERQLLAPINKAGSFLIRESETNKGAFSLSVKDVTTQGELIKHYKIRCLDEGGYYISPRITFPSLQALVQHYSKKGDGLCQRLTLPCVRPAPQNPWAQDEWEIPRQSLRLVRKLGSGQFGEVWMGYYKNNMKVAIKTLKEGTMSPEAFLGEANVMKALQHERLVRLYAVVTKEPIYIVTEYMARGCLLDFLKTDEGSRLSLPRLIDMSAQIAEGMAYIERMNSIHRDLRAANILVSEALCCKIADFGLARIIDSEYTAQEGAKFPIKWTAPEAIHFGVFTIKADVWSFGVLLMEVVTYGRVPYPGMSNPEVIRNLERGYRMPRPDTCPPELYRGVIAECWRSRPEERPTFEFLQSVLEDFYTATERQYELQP

Chain of RAF proto-oncogene serine/threonine-protein kinase (Homo sapiens) (P04049 whole entry): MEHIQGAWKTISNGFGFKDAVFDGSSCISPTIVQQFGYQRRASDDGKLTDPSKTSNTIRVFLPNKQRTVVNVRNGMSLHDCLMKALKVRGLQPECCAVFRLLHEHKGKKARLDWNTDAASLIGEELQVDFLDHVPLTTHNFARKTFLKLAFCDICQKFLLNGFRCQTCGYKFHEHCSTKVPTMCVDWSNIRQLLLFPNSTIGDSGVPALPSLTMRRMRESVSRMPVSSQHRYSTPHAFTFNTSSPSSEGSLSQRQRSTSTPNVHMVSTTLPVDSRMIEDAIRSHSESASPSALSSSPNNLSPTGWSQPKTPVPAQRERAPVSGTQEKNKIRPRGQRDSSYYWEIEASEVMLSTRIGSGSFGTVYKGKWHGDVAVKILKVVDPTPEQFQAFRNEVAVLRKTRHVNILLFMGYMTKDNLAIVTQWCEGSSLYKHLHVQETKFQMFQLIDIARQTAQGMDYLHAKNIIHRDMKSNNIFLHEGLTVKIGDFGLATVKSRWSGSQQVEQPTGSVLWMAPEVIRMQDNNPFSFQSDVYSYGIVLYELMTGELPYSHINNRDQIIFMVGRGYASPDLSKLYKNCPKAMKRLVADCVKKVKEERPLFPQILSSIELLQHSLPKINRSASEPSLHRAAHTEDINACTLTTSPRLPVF
Chain of Tyrosine-protein kinase ABL1 (Homo sapiens), P00519 [F317I] (P00519 whole entry F317I): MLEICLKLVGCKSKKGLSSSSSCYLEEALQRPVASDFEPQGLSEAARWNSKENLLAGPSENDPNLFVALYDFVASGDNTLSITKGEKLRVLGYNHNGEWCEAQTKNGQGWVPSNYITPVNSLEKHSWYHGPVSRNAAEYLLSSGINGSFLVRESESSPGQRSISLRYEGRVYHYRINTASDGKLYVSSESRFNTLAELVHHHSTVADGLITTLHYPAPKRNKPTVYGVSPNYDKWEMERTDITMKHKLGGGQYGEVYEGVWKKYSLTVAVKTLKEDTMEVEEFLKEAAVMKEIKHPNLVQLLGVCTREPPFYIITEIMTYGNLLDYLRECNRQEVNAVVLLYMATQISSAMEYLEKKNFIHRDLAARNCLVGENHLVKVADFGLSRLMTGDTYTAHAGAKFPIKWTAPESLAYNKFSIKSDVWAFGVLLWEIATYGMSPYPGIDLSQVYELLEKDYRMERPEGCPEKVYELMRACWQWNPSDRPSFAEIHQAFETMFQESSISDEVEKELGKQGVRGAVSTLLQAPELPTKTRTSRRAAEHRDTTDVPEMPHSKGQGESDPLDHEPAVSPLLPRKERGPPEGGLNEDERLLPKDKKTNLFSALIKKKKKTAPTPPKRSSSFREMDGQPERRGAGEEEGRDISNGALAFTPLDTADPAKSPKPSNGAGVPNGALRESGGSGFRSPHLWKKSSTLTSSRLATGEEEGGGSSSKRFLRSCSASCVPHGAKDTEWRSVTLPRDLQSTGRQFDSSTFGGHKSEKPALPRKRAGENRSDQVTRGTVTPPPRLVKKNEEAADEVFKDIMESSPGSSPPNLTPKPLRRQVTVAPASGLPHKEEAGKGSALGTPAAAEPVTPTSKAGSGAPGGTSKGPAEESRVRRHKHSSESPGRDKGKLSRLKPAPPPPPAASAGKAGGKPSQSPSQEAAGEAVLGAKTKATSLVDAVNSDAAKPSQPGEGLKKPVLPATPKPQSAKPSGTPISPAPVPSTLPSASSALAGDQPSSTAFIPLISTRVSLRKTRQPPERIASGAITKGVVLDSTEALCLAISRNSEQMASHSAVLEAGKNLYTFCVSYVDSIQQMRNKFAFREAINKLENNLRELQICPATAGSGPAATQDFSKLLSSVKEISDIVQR

COc1cc(N(C)c2ccnc3ccc(C(F)(F)F)cc23)cc(OC)c1OC
% binding [1]: 100%

C=CC(=O)Nc1ccc(C(=O)Nc2[nH]nc3c2CN(C(=O)N[C@H](CN(C)C)c2ccccc2)C3(C)C)cc1
% of engagement [2]: -12.8%

Cc1cc([C@@H](C)Nc2ccccc2C(=O)O)c2nc(N3CCOCC3)cc(=O)n2c1 [AZD-6482]
% of control [3]: 94%

Cn1cc(-n2cnc3c(NCc4nc5cc(Cl)c(Cl)cc5[nH]4)nc(N4CCOCC4)nc32)cn1
IC50 [4]: > 10 µM
% of control [5]: 1.79%

COc1cc(Nc2nc(C)cc(-c3cnn4nc(OC)ccc34)n2)cc(C(F)(F)F)c1
% of control [6]: 87%

CN(C)C/C=C/C(=O)Nc1ccc(C(=O)N2CCCC(Nc3ncc(Cl)c(-c4c[nH]c5ccccc45)n3)C2)cc1 (stereo not drawn)
% of control [7]: 91%

N#Cc1cccc(-c2c[nH]c3ncnc(N4CCOCC4)c23)c1
% of control [8]: 72%

— ChEMBL document CHEMBL5465560, “Selectivity Literature for EUbOPEN Chemogenomic Library” (2024)
